The source of these data is patent US20100099677A1, “Compounds, Compositions and Methods Comprising Thiazole Derivatives” (Institute for OneWorld Health, priority 2008, published 2010).

pIC50: −log10 of the molar value.

In the experiment the target is T1, CFTR (Homo sapiens, UniProt P13569).
T1 construct: results in the phosphorylation and opening of CFTR anion channels; host or cells: Human colonic T84 cells
T1 sequence (P13569 whole entry): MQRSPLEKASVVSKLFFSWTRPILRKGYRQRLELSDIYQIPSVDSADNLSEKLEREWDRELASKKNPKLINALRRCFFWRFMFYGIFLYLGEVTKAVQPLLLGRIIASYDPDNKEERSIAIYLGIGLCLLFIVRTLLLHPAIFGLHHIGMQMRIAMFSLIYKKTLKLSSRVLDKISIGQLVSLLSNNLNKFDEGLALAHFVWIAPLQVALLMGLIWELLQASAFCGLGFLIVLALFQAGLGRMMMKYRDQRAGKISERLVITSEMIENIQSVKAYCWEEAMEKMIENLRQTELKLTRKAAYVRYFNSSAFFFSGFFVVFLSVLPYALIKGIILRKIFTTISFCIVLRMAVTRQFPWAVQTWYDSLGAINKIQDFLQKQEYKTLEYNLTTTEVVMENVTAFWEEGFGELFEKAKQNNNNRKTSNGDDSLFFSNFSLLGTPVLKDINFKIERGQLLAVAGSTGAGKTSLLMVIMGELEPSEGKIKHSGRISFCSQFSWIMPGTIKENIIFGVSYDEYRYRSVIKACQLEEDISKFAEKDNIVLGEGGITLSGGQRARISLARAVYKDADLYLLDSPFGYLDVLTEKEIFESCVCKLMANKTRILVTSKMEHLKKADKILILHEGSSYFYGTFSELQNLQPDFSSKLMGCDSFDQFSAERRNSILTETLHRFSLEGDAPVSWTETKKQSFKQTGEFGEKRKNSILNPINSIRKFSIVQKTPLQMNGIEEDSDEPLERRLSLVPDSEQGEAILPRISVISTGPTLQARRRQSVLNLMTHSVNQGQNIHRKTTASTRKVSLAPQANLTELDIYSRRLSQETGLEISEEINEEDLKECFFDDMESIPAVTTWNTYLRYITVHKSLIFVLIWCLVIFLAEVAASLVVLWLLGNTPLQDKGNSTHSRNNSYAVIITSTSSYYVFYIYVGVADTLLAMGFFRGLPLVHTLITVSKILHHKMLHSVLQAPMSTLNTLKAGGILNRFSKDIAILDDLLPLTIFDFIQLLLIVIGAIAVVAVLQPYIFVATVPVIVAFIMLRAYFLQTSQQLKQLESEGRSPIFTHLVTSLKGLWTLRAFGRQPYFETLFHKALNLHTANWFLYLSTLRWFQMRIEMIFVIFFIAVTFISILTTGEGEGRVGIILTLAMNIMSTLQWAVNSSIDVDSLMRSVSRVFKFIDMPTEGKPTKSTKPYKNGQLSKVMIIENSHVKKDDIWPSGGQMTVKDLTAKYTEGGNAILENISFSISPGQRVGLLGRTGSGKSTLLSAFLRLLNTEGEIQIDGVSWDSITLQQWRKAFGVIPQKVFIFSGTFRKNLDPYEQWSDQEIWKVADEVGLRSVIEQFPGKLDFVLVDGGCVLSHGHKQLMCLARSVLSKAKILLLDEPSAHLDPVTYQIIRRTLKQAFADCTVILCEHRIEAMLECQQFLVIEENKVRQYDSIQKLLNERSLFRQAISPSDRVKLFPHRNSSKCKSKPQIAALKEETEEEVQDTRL
Description: T84 assay (FLIPR membrane potential dye, forskolin/IBMX-stimulated CFTR channel activity). The settings on record: human colonic T84 cells, average of at least 2 runs unless otherwise indicated. Type of experiment: cell-based. Here is the method: (§1) For example, Human colonic T84 cells can be acquired from the European Collection of Cell Cultures (ECACC) and grown in standard culture conditions as described by the supplier. On the day before assay 25,000 T84 cells per well are plated into standard black walled, clear bottom 384-well assay plates in standard growth medium consisting of DMEM:F12 with 10% FBS and incubated overnight. On the day of the assay the plates are washed using a standard assay buffer (HBSS with 10 mM Hepes) and incubated for 15 minutes in serum free cell culture medium before the addition of a commercially available membrane potential sensitive fluorescent dye (FLIPR Red membrane potential dye, Molecular Devices Corporation). T84 cells are incubated with the FLIPR Red membrane potential dye for 45 minutes in the presence and absence of test compound before being transferred to a commercially available fluorescence imaging plate reader (FLIPR384, Molecular Devices Corporation). Fluorescence levels are monitored continuously every second for 150 seconds; after an initial 10 second baseline, CFTR channel activity is stimulated through the addition of 10 μM forskolin in the presence of 100 μM of the phosphodiesterase inhibitor iso-butyl-methylxanthine (IBMX). Addition of the forskolin leads to the activation of intracellular adenylyl cylase 1, elevating cAMP levels and results in the phosphorylation and opening of CFTR anion channels. CFTR channel opening causes chloride ion efflux and subsequent depolarization of the cells, which is measured by an increase in fluorescence. CFTR inhibitor compounds prevent cell depolarization and the associated increase in fluorescence.
as §1, with “Human colonic” for “For example, Human colonic”, “T84 cells are acquired from” for “T84 cells can be acquired from”, “(ECACC) and are grown in” for “(ECACC) and grown in”
For orientation: pIC50 means the IC50 on a negative log10 scale, so that one unit is a factor of ten. A higher pIC50 goes with a low IC50. The molecule `O=C(c1nc(-c2cc(Br)c(O)c(Br)c2OCCN2CCOCC2)cs1)N1CCC(Cc2ccccc2)CC1` [Compound 86, (4-benzylpiperidin-1-yl)(4-(3,5-dibromo-4-hydroxy-2-(2-morpholinoethoxy)phenyl)thiazol-2-yl)methanone] had a pIC50 of 5.52. For `CN(Cc1cccc(C(F)(F)F)c1)C(=O)c1nc(-c2cc(Cl)c(O)c(Cl)c2)cs1` [Compound 67, 4-(3,5-Dichloro-4-hydroxyphenyl)-N-methyl-N-(3-(trifluoromethyl)benzyl)thiazole-2-carboxamide], the pIC50 was 5.39.

On to `O=C(NCc1ccc(Oc2ccccc2)cc1)c1nc(-c2cc(Br)c(O)c(Br)c2)cs1` [Compound 75, 4-(3,5-Dibromo-4-hydroxyphenyl)-N-(4-phenoxybenzyl)thiazole-2-carboxamide], for which the pIC50 is 4.62. `O=C(NCC(c1ccccc1)c1ccccc1)c1nc(-c2cc(Br)c(O)c(Br)c2O)cs1` [Compound 81, 4-(3,5-dibromo-2,4-dihydroxyphenyl)-N-(2,2-diphenylethyl)thiazole-2-carboxamide] had a pIC50 of 5.37. `COCCOCCOc1c(-c2csc(C(=O)N3CCC(Cc4ccccc4)CC3)n2)cc(Br)c(O)c1Br` [Compound 87, (4-benzylpiperidin-1-yl)(4-(3,5-dibromo-4-hydroxy-2-(2-(2-methoxyethoxy)ethoxy)phenyl)thiazol-2-yl)methanone] showed a pIC50 of 5.76. Then `O=C(NCc1cccc(OC(F)(F)F)c1)c1nc(-c2cc(Br)c(O)c(Br)c2O)cs1` [Compound 78, 4-(3,5-dibromo-2,4-dihydroxyphenyl)-N-(3-(trifluoromethoxy)benzyl)thiazole-2-carboxamide], with 5.59; and `O=C(NCc1cccc(OC(F)(F)F)c1)c1csc(-c2cc(Cl)c(O)c(Cl)c2)n1` [Compound 80, 2-(3,5-Dichloro-4-hydroxyphenyl)-N-(3-(trifluoromethoxy)benzyl)thiazole-4-carboxamide], with 4.82; and `CCOC(=O)CCCOc1c(-c2csc(C(=O)N3CCC(Cc4ccccc4)CC3)n2)cc(Br)c(O)c1Br` [Compound 83, Ethyl 4-(6-(2-(4-benzylpiperidine-1-carbonyl)thiazol-4-yl)-2,4-dibromo-3-hydroxyphenoxy)butanoate], with 5.38. As for `O=C(NC(c1ccccc1)c1ccccc1)c1nc(-c2cc(Br)c(O)c(Br)c2)cs1` [Compound 71, N-Benzhydryl-4-(3,5-dibromo-4-hydroxyphenyl)thiazole-2-carboxamide], the pIC50 is 5.03. The figure for `O=C(NC(c1ccccc1)c1ccccc1)c1nc(-c2cc(Cl)c(O)c(Cl)c2)cs1` [Compound 69, N-Benzhydryl-4-(3,5-dichloro-4-hydroxyphenyl)thiazole-2-carboxamide] is 5.19; for `O=C(c1nc(-c2cc(Br)c(O)c(Br)c2O)cs1)N1CCN(c2cccc(C(F)(F)F)c2)CC1` [Compound 82, (4-(3,5-dibromo-2,4-dihydroxyphenyl)thiazol-2-yl)(4-(3-(trifluoromethyl)phenyl)piperazin-1-yl)methanone] it is 4.90; for `O=C(NCc1ccc(Oc2ccccc2)cc1)c1nc(-c2cc(Cl)c(O)c(Cl)c2)cs1` [Compound 76, 4-(3,5-Dichloro-4-hydroxyphenyl)-N-(4-phenoxybenzyl)thiazole-2-carboxamide] it is 4.53. Then `O=C(c1nc(-c2cc(Cl)c(O)c(Cl)c2)cs1)N1CCC(Cc2ccccc2)CC1` [Compound 70, (4-benzylpiperidin-1-yl)(4-(3,5-dichloro-4-hydroxyphenyl)thiazol-2-yl)methanone], with 5.05. The molecule `O=C(c1nc(-c2cc(Cl)c(O)c(Cl)c2)cs1)N1CCN(c2cccc(C(F)(F)F)c2)CC1` [Compound 74, (4-(3,5-Dichloro-4-hydroxyphenyl)thiazol-2-yl)(4-(3-(trifluoromethyl)phenyl)piperazin-1-yl)methanone] showed a pIC50 of 4.70. Take `O=C(c1nc(-c2cc(Br)c(O)c(Br)c2)cs1)N1CCN(c2cccc(C(F)(F)F)c2)CC1` [Compound 73, (4-(3,5-Dibromo-4-hydroxyphenyl)thiazol-2-yl)(4-(3-(trifluoromethyl)phenyl)piperazin-1-yl)methanone]: the pIC50 is 4.91.

Molecule `Cc1cccc(COc2c(-c3csc(C(=O)N4CCC(Cc5ccccc5)CC4)n3)cc(Br)c(O)c2Br)n1` [Compound 88, (4-benzylpiperidin-1-yl)(4-(3,5-dibromo-4-hydroxy-2-((6-methylpyridin-2-yl)methoxy)phenyl)thiazol-2-yl)methanone] had a pIC50 of 4.81. `O=C(O)CCCOc1c(-c2csc(C(=O)N3CCC(Cc4ccccc4)CC3)n2)cc(Br)c(O)c1Br` [Compound 89, 4-(6-(2-(4-Benzylpiperidine-1-carbonyl)thiazol-4-yl)-2,4-dibromo-3-hydroxyphenoxy)butanoic acid] had a pIC50 of 5.06. For the molecule `O=C(c1nc(-c2cc(Br)c(O)c(Br)c2)cs1)N1CCC(Cc2ccccc2)CC1` [Compound 72, (4-Benzylpiperidin-1-yl)[4-(3,5-dibromo-4-hydroxyphenyl)thiazol-2-yl]methanone], the pIC50 was 4.95. `O=C(NCc1ccc(Oc2ccccc2)cc1)c1nc(-c2cc(Br)c(O)c(Br)c2O)cs1` [Compound 79, 4-(3,5-dibromo-2,4-dihydroxyphenyl)-N-(4-phenoxybenzyl)thiazole-2-carboxamide]: the pIC50 was 4.94. The molecule `O=C(c1nc(-c2cc(Br)c(O)c(Br)c2O)cs1)N1CCC(Cc2ccccc2)CC1` [Compound 68, (4-Benzylpiperidin-1-yl)(4-(3,5-dibromo-2,4-dihydroxyphenyl)thiazol-2-yl)methanone] had a pIC50 of 5.32.
